Data: US20250360120A1, “METHODS OF TREATMENT OF DRAVET SYNDROME” (Noema Pharma AG, priority 2023, published 2025)

Test system: Scn1a+/− mice
Assay: Seizure frequency, seizure freedom and time to first seizure (frontal cortex EEG) in Scn1a+/− mice
Assay type: in vivo
Conditions: for Odds Ratio of seizure freedom (vs Untreated) / Probability of seizure freedom: GLM binomial; for median time to first seizure: Kaplan-Meier, Untreated group 7 days
Experimental: Heterozygous deletion of Sca1a in mice (Scn1a+/−) recapitulates several core phenotypes of clinical Dravet syndrome, including temperature-dependent and spontaneous seizures, SUDEP, and behavioral abnormalities. […] As such, Scn1a+/−mice are a favourable model to enable translation of novel ASMs with varied mechanism of action to the clinic.
The experiment was conducted to evaluate the effect of Compound I, CTEP and RO6807794 on seizure frequency, seizure freedom and survival in Scn1a+/− mice.
Frontal cortex recordings were selected as representative of the seizure phenomenology on mice experiencing generalized seizures. EEG headmounts were implanted between P20-22 and recordings were initiated for continuous monitoring for a period of approximately 14-days for the NAM group and PAM group. Individual frontal cortex seizure measurements over time were visually explored and summaries across the time course were calculated. • 1. Seizure frequency
Seizure frequency was measured by count of the number of seizures observed each day. The frequency was analyzed using a Chi-square test (all treatments) and Fisher's Exact test (pairwise treatment comparisons). • 2. Seizure freedom
Seizure freedom was measured with a binary (0 or 1) endpoint, where it was recorded as a […] was recorded across the whole study. Seizure freedom was summarized across all animals into a contingency table and analyzed using a generalized linear model (GLM) with a binomial distribution for the errors and a logit link function. The results were presented as probabilities and odds ratios between groups and 95% confidence intervals. The odd ratio described how much more likely it is for an animal to have no seizures (Seizure freedom=1) in a treated group compared to the untreated group. Analyses were performed using GraphPad Prism 9 (contingency table) and SAS 9.4 (binomial model). • 3. Time to first seizure:
Time to first seizure refers the time recorded as the day on which the first seizure occurred (an observed, uncensored observation), or the final day of recording for that animal if on seizure was observed (a censored observation). Time to first seizure was visualized using a Kaplan-Meier plot and analyzed using a Log-rank (Mantel-Cox) test. Analyses were performed using GraphPad Prism 9. • 4. Total seizure burden
Total seizure burden is sum of the seizure frequency across all study days. • 5. Seizure per day
Seizure per day is measured by the total seizure count divided by the number of study days, wherein a seizure count measurement was adjusted by the number of days the animal was in the study.
Time to first seizure and Seizure per day were explored visually and analyzed using analysis of variance (ANOVA). Results were presented as geometric means, ratios of geometric means, confidence intervals and p-values. An additional non-parametric analysis, Kruskal-Wallis, was explored along with Wilcoxon pairwise comparisons to the Untreated group. The data was also analyzed using a generalized linear model (GLM) with a Poisson distribution for the errors and a log link function. The linear predictor described a model suitable for exploring a fixed effect of treatment group.

[1] = 0.3 mg/kg PO every other day for 28-days
[2] = ANOVA on log10 adjusted scale, 0.3 mg/kg PO every other day for 28-days
[3] = Generalized Linear Model on discrete (count) data, 0.3 mg/kg PO every other day for 28-days
[4] = Kruskal-Wallis with Wilcoxon pairwise tests, 0.3 mg/kg PO every other day for 28-days
[5] = exploratory ANOVA on log10 scale, 0.3 mg/kg PO every other day for 28-days
[6] = 0.3 mg/kg PO once daily for 28-days from P10
[7] = 1 mg/kg PO once daily for 28-days from P10
[8] = ANOVA on log10 adjusted scale, 0.3 mg/kg PO once daily for 28-days from P10
[9] = ANOVA on log10 adjusted scale, 1 mg/kg PO once daily for 28-days from P10
[10] = Generalized Linear Model on discrete (count) data, 0.3 mg/kg PO once daily for 28-days from P10
[11] = Generalized Linear Model on discrete (count) data, 1 mg/kg PO once daily for 28-days from P10
[12] = Kruskal-Wallis with Wilcoxon pairwise tests, 1 mg/kg PO once daily for 28-days from P10
[13] = exploratory ANOVA on log10 scale, 0.3 mg/kg PO once daily for 28-days from P10
[14] = exploratory ANOVA on log10 scale, 1 mg/kg PO once daily for 28-days from P10
[15] = ANOVA on log10 adjusted scale, 0.3 mg/kg IP once daily for 5-days from P21
[16] = Generalized Linear Model on discrete (count) data, 0.3 mg/kg IP once daily for 5-days from P21

Cc1nc(C#Cc2ccnc(Cl)c2)c(C)n1-c1ccc(OC(F)(F)F)cc1 [CTEP, reference compound]
Frequency of animals with At least 1 Seizure [1]: 4 | Frequency of animals with No Seizures (seizure freedom) [1]: 11 | Percent of animals with At least 1 Seizure [1]: 26.7% | Percent of animals with No Seizures (seizure freedom) [1]: 73.3% | animals with Seizure Freedom over time (Kaplan-Meier, in words) [1]: more animals with Seizure Freedom for a longer duration | Seizure per day, % Change compared to untreated group [2]: −79.05% | Seizure per day, Geometric Mean [2]: 0.026 | Seizure per day, Ratio of Means compared to untreated group [2]: 0.21 | reduction of average seizure per day compared to the Untreated group [2]: 85% | Odds Ratio of seizure freedom (vs Untreated) [1]: 8.25 | Probability of seizure freedom [1]: 0.73 | reduction of total seizure burden compared to the Untreated group (GLM on discrete (count) data, 0.3 mg/kg PO every other day for 28-days): 62% | Seizure per day, % Change vs Untreated [3]: −23.56% | Seizure per day, Geometric Mean [3]: 0.375 | Seizure per day, Ratio of Means vs Untreated [3]: 0.76 | Total Seizure Burden, % Change vs Untreated [3]: −62.47% | Total Seizure Burden, Geometric Mean [3]: 2.53 | Total Seizure Burden, Ratio of Means vs Untreated [3]: 0.38 | seizure per day rates compared to the Untreated group (in words) [4]: decreased seizure per day rates | total seizure burden compared to the Untreated group (in words) [4]: lower total seizure burden | Total Seizure Burden, % Change compared to Untreated group [5]: −82.08% | Total Seizure Burden, Geometric Mean [5]: 0.32 | Total Seizure Burden, Ratio of Means compared to Untreated group [5]: 0.18 | reduction of total seizure burden compared to the Untreated group [5]: 82%

Cc1nc(C#Cc2ccnc(Cl)c2)c(C)n1-c1ccc(F)cc1 [Compound I, 2-chloro-4-[1-(4-fluorophenyl)-2,5-dimethyl-1H-imidazol-4-ylethynyl]pyridine]
Frequency of animals with At least 1 Seizure [6]: 10 | Frequency of animals with No Seizures (seizure freedom) [6]: 1 | Percent of animals with At least 1 Seizure [6]: 90.9% | Percent of animals with No Seizures (seizure freedom) [6]: 9.1% | Frequency of animals with At least 1 Seizure [7]: 3 | Frequency of animals with No Seizures (seizure freedom) [7]: 10 | Percent of animals with At least 1 Seizure [7]: 23.1% | Percent of animals with No Seizures (seizure freedom) [7]: 76.9% | animals with Seizure Freedom over time (Kaplan-Meier, in words) [7]: more animals with Seizure Freedom for a longer duration | chance of seizure freedom (1 mg/kg PO once daily for 28-days from P10, 25% in the Untreated group): 77% | Seizure per day, % Change compared to untreated group [8]: 183.96% | Seizure per day, Geometric Mean [8]: 0.349 | Seizure per day, Ratio of Means compared to untreated group [8]: 2.84 | Seizure per day, % Change compared to untreated group [9]: −84.81% | Seizure per day, Geometric Mean [9]: 0.019 | Seizure per day, Ratio of Means compared to untreated group [9]: 0.15 | reduction of average seizure per day compared to the Untreated group [9]: 79% | Odds Ratio of seizure freedom (vs Untreated) [6]: 0.3 | Probability of seizure freedom [6]: 0.09 | Odds Ratio of seizure freedom (vs Untreated) [7]: 10 | Probability of seizure freedom [7]: 0.77 | reduction of total seizure burden compared to the Untreated group (GLM on discrete (count) data, 1 mg/kg PO once daily for 28-days from P10): 44% | Seizure per day, % Change vs Untreated [10]: 85.38% | Seizure per day, Geometric Mean [10]: 0.910 | Seizure per day, Ratio of Means vs Untreated [10]: 1.85 | Total Seizure Burden, % Change vs Untreated [10]: 87.21% | Total Seizure Burden, Geometric Mean [10]: 12.64 | Total Seizure Burden, Ratio of Means vs Untreated [10]: 1.87 | Seizure per day, % Change vs Untreated [11]: −46.32% | Seizure per day, Geometric Mean [11]: 0.263 | Seizure per day, Ratio of Means vs Untreated [11]: 0.54 | Total Seizure Burden, % Change vs Untreated [11]: −44.16% | Total Seizure Burden, Geometric Mean [11]: 3.77 | Total Seizure Burden, Ratio of Means vs Untreated [11]: 0.56 | median time to first seizure [6]: 2 days | seizure per day rates compared to the Untreated group (in words) [12]: decreased seizure per day rates | total seizure burden compared to the Untreated group (in words) [12]: lower total seizure burden | Total Seizure Burden, % Change compared to Untreated group [13]: 136.21% | Total Seizure Burden, Geometric Mean [13]: 4.16 | Total Seizure Burden, Ratio of Means compared to Untreated group [13]: 2.36 | Total Seizure Burden, % Change compared to Untreated group [14]: −84.25% | Total Seizure Burden, Geometric Mean [14]: 0.28 | Total Seizure Burden, Ratio of Means compared to Untreated group [14]: 0.16 | reduction of total seizure burden compared to the Untreated group [14]: 84%

CN(C(=O)c1ncc(C#Cc2cccc(F)c2)cn1)C(C)(C)C [RO6807794, reference compound]
Seizure per day, % Change compared to untreated group [15]: 751.1% | Seizure per day, Geometric Mean [15]: 1.046 | Seizure per day, Ratio of Means compared to untreated group [15]: 8.51 | seizure per day rates compared to the Untreated group (in words) (GLM on discrete (count) data, 0.3 mg/kg IP once daily for 5-days from P21): statistically significantly increased seizure per day rates | Seizure per day, % Change vs Untreated [16]: 407.47% | Seizure per day, Geometric Mean [16]: 2.490 | Seizure per day, Ratio of Means vs Untreated [16]: 5.07 | median time to first seizure (0.3 mg/kg IP once daily for 5-days from P21): 3 days | seizure per day rates compared to the Untreated group (in words) (Kruskal-Wallis with Wilcoxon pairwise tests, 0.3 mg/kg IP once daily for 5-days from P21): increased seizure per day rates
